Like-named read-outs stand apart in the source and are kept apart here.
Legend:
[1] = tested on: urease; assay type: biochemical
[2] = tested on: urease; test: Longevity of urea protection by urease inhibitor; conditions: ~0.1% NBPT; according to the literature and own studies
Description: Urea can only benefit plants as an aqueous solution, so the protecting urease inhibitor NBPT must be also dissolved and spread along with urea.

[3] = ammonia after 1 week, NBPT (PG, 26.70%, 8 mg) alone or oxidant added per stated mg of NBPT
[4] = ammonia after 3 days, NBPT (PG, 26.70%, 8 mg) alone or oxidant added per stated mg of NBPT

With `CCCCNP(N)(N)=O` [NBPTO, oxidized N-(n-Butyl)thiophosphoric triamide] as the compound, how does the “Urease Inhibitor Test (ammonia ppm), 1 week” value [1] read?
Its value is 0.6 ppm.

What about the “Urease Inhibitor Test (ammonia ppm), 2 weeks” value [1] of the same compound?
The value was 1 ppm.

And the “Urease Inhibitor Test (ammonia ppm), 3 weeks” value [1]?
Its value is 5 ppm.

And the “Urease Inhibitor Test (ammonia ppm), 3 days” value [1]?
The value was 0.05 ppm.

What about the “urease inhibition increase in comparison with NBPT” value [1] of the same compound?
The value was “up to eight-fold urease inhibition increase”.

Which results are given for `OO` [Hydrogen Peroxide, 10%, Hydrogen Peroxide]?
Urease Inhibitor Test with additional oxidant components (ammonia ppm), 1 week [1]: 400 ppm; Urease Inhibitor Test with additional oxidant components (ammonia ppm), 3 days [1]: 0.1 ppm

What does the source list for `CCCCNP(N)(N)=S` [NBPT, N-(n-Butyl)thiophosphoric triamide, reference compound]?
Urease Inhibitor Test with additional oxidant components (ammonia ppm), 1 week [1, 3]: 800 ppm; Urease Inhibitor Test (ammonia ppm), 1 week ([1]; ammonia after 1 week, treatment + about 5.0 g urea in 10 mL water on 60 g soil, sealed): 35 ppm; Urease Inhibitor Test (ammonia ppm), 2 weeks ([1]; ammonia after 2 weeks, treatment + about 5.0 g urea in 10 mL water on 60 g soil, sealed): 600 ppm; Urease Inhibitor Test with additional oxidant components (ammonia ppm), 3 days [1, 4]: 5 ppm; Urease Inhibitor Test (ammonia ppm), 3 days ([1]; ammonia after 3 days, treatment + about 5.0 g urea in 10 mL water on 60 g soil, sealed): 13 ppm; longevity of urea protection [2]: around one week

For `O=S(=O)([O-])OOS(=O)(=O)[O-].[K+].[K+]` [Potassium Persulfate], which “Urease Inhibitor Test with additional oxidant components (ammonia ppm), 1 week” value [1, 3] is on record?
The value was 140 ppm.

What about the “Urease Inhibitor Test with additional oxidant components (ammonia ppm), 3 days” value [1, 4] of the same compound?
The value was 1 ppm.

Source: patent US20240368050A1, “ENHANCED PERFORMANCE UREASE INHIBITOR, COMPOSITIONS AND METHODS THEREOF” (priority 2023, published 2024)
